Assays:
[1] = molecular target: T1, human Oxytocin (hOT) receptor (Homo sapiens, UniProt P30559); experiment: In vitro competition binding assay on hOT receptor with scintillation proximity assay; conditions: inhibition of [125I]-OVTA binding, membranes from HEK293EBNA cells expressing hOT receptor; read-out: Binding Affinity hOT-R (Ki [nM])
T1 construct: expressed in transfected cells; host or cells: HEK293EBNA (membranes)
T1 sequence (P30559 1-389): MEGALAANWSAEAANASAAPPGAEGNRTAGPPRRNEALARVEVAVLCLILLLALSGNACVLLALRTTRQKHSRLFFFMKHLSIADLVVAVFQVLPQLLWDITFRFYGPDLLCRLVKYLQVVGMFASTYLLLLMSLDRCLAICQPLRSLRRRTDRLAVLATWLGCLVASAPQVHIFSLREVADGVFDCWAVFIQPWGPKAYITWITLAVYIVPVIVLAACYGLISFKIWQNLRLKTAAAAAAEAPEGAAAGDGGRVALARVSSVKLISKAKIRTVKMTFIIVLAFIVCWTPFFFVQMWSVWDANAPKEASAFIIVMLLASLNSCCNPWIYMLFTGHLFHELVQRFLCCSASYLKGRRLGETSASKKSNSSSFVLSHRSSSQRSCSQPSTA
Experimental: The compounds according to Formula I may be subjected to the following assays: • a) In vitro Competition Binding Assay on hOT Receptor with Scintillation Proximity Assay (11).
This assay allows to determine the affinity of the test compounds for the human Oxytocin (hOT) receptor. Membranes from HEK293EBNA (cells expressing the hOT receptor) were suspended in buffer containing 50 mM Tris-HCl, pH 7.4, 5 mM MgCl2 and 0.1% BSA (w/v). The membranes (2–4 μg) were mixed with 0.1 mg SPA bead coated with wheat-germ aglutinin (WGA-PVT-Polyethylene Imine beads from Amersham) and 0.2 nM of the radiolabelled [^125I]-OVTA (OVTA being Ornithin Vasoactive, an analogue of OT for competitive binding experiments). Non-specific binding was determined in the presence of 1 μM Oxytocin. The total assay volume was 100 μl. The plates (Corning® NBS plate) were incubated at room temperature for 30 min and counted on a Mibrobeta® plate scintillation counter. Competitive binding was performed in presence of compounds of formula (I) at the following concentrations: 30 μM, 10 μM, 1 μM, 300 nM, 100 nM, 10 nM, 1 nM, 100 pM, 10 pM. The competitive binding data were analysed using the iterative, nonlinear, curve-fitting program, “Prism” (GraphPad Software, Inc).
The ability of pyrrolidine derivatives of formula (I) to inhibit the binding of ^125-OVTA to the OT-receptor was assessed using the above described in vitro biological assay. Representative values for some example compounds are given in Table I where the binding affinity of test compounds from the above examples is expressed by the inhibition constant (Ki; nM). From these values, it can be derived that said test compounds according to formula I do show a significant binding to the oxytocin receptor.

[2] = molecular target: T2, hOT receptor (HEK293EBNA cells expressing the hOT receptor) (Homo sapiens, UniProt P30559); experiment: Functional assay No. 1: inhibition of oxytocin mediated Ca2+-mobilization by FLIPR; type: cell-based; conditions: OT 40 nM, fluo-4, read-out: Inhibition of Ca2+ mobilisation, hOT-R IC50
T2 construct: expressed in transfected cells; host or cells: HEK293EBNA
T2 sequence (P30559 1-389): T1 sequence (P30559 1-389)
Experimental: This assay allows the measurement of the inhibition of OT/OT-R mediated calcium mobilization by test compounds of formula (I).
Preparing the plates: FLIPR-plates were pre-coated with PLL (Poly-L-Lysine) 10 μg/ml+0.1% gelatine to attach HEK293EBNA cells (Human Embryonic Kidney cells expressing the hOT receptor) and incubated for 30 min up to 2 days at 37° C. The cells were plated out into 96-well-plates (60000 cells/well).
Labelling with fluo-4: 50 μg of fluo-4 (Ca2+ sensitive fluorescent dye) were dissolved in 20 μl pluronic acid (20% in DMSO). The dissolved fluo-4 was then diluted in 10 ml DMEM (Dubecco's Minimal Essential Medium)-F12 culture medium. The plates were washed one time with DMEM-F12 medium. […] Fluo-4 is taken up by the cytoplasm of the cells. […]
The relative fluorescence of Fluo-4 (λex=488 nm, λem=590 nm) is then measured by the FLIPR in presence or absence of compounds of formula (I). The fluorescence of the marker being sensitive to the amount of Ca^2+, the Ca^2+ movements can be detected. Then, it can be determined the ability of compounds of formula (I) to antagonize the oxytocin-induced intracellular Ca^2+-mobilization mediated by the oxytocin receptor.
The activities of the pyrrolidine derivatives according to formula I were assessed using the above described in vitro biological assay. […]

[3] = test system: oxytocin-induced uterine contractions in the rat; experiment: In vivo model for inhibition of uterine contractions; conditions: 40 min after test compound administration
Experimental: The ability of compounds of formula (I) to effectively antagonize oxytocin-induced IP3-synthesis mediated by the oxytocin receptor, can be assessed using the above described in vitro biological assay. • d) In vivo Model for Inhibition of Uterine Contractions
The assay evaluates the biological effect of tested compounds in an in vivo model of preterm labor, premature birth.
Non-pregnant Charles River CD (SD) BR female rats (9–10 weeks old, 200–250 g) were treated at 18 and 24 hours before the experiment with 250 μg/kg, i.p. diethylstilbestrol (DES). For the assay, the animal was anaesthetised with urethane (1.75 g/kg, i.p.) and placed on a homeothermic operating table. The trachea was isolated and cannulated with a suitable polyethylene (PE) tubing. […]
The contractile response of the uterus to oxytocin was quantified by measuring the intra-uterine pressure and the number of contractions. The effect of the reference and test compounds was evaluated by comparing pre- and post-treatment pressure values. In addition, contractions of the uterine were measured at 5, 40, 75, 110, 145 and 180 minutes after test compound administration.
The activities of the pyrrolidine derivatives claimed in the Formula I can be assessed using the above described in vivo biological assay. […]

| Ki [1] [nM] | IC50 [2] [nM] | Compound | % Reduction of Uterine Contraction ([3]; 10 mg/kg per i.v.) [%] | % Reduction of Uterine Contraction ([3]; 30 mg/kg per os) [%] |
| --- | --- | --- | --- | --- |
| 5.1 | – | CON=C1C[C@@H](CN2C(=O)c3ccccc3C2=O)N(C(=O)c2ccc(-c3ccccc3)cc2)C1 [Compound 12, 2-{[(2S,4EZ)-1-(1,1′-biphenyl-4-ylcarbonyl)-4-(methoxyimino)pyrrolidin-2-yl]methyl}-1H-isoindole-1,3(2H)-dione] | – | – |
| 120 | – | CON=C1C[C@@H](CCO)N(C(=O)c2ccc(-c3ccccc3)cc2)C1 [Compound 16, (3EZ,5S)-1-(1,1′-biphenyl-4-ylcarbonyl)-5-(2-hydroxyethyl)pyrrolidin-3-one O-methyloxime] | – | – |

The next lines start with the molecule.

| Compound | Ki [1] [nM] | IC50 [2] [nM] | % Reduction of Uterine Contraction ([3]; 10 mg/kg per i.v.) [%] | % Reduction of Uterine Contraction ([3]; 30 mg/kg per os) [%] |
| --- | --- | --- | --- | --- |
| CON=C1C[C@@H](COCC(=O)NCCN2CCCC2)N(C(=O)c2ccc(-c3ccccc3)cc2)C1 [Compound 7, 2-{[(2S,4EZ)-1-(1,1′-biphenyl-4-ylcarbonyl)-4-(methoxyimino)pyrrolidin-2-yl]methoxy}-N-(2-pyrrolidin-1-ylethyl)acetamide] | 140 | – | – | – |
| COC[C@@H]1CC(=NOC)CN1C(=O)c1ccc(-c2ccccc2)cc1 [Compound 8, (3EZ,5S)-1-(1,1′-biphenyl-4-ylcarbonyl)-5-(methoxymethyl)pyrrolidin-3-one O-methyloxime] | 55 | – | – | – |
| CON=C1C[C@@H](CO)N(C(=O)c2ccc(-c3ccccc3)cc2)C1 [Compound 2, (3EZ,5S)-1-(1,1′-biphenyl-4-ylcarbonyl)-5 (hydroxymethyl) pyrrolidin-3-one O-methyloxime] | 139 | 90 | 39.8 ± 10.0 | 50.9 ± 8.6 |
| CO/N=C1/C[C@@H](CO)N(C(=O)c2ccc(-c3ccccc3)cc2)C1 [Compound 4, (3Z,5S)-1-(1,1′-biphenyl-4-ylcarbonyl)-5-(hydroxymethyl) pyrrolidin-3-one O-methyloxime] | 94.9 | 10 | – | – |
